Results on six compounds are retold here after US7799915B2, “Anilino-pyrimidine analogs” (Wyeth LLC, priority 2004, dated 2010).

The structures appear in SMILES notation.

For the assay, the system named is IκBα in Hela cells treated with TNFα. The experiment in a line: Western Analysis of IκBα. It counts as cell-based. The settings on record: Hela cells treated with compounds for 30 min before addition of TNFα (10 μg/ml), harvested after one hour; mouse anti-IκBα antibody. The procedure: Hela cells are plated at 6-well plate for 24 hours and treated with compounds for 30 min before the addition of TNFα (10 μg/ml). After one hour, Hela cells are harvested in MPER reagent (Pierce, Rockford, Ill.) containing 400 mM NaCl. Protein from all samples is quantified by the Bradford method. Cell lysates containing 30 μg of protein are electrophoresed on a 12% SDS-PAGE gel and transferred to a PVDF membrane using a Bio Rad liquid transfer apparatus. The PVDF membrane is incubated in TBST (TBS with 0.1% Tween-20) with 3% milk for 15 minutes before the addition of the first antibody, mouse anti-IκBα (Santa Cruz). After overnight incubation, the PVDF membrane is washed 3 times with TBST and incubated with secondary antibodies coupled with horseradish peroxidase (Transduction Labs) for one hour. The PVDF membrane is then washed 3 times with TBST and protein is detected using an enhanced chemiluminescence detection system (Pierce).
As to `COc1ccc(-c2ccnc(Nc3ccc(S(=O)(=O)NCCN(C)C)c(C(F)(F)F)c3)n2)cc1F` [compound 167], the “result in Western analysis of IκBα” value is on record as “slightly positive result”. Consider `NS(=O)(=O)c1ccc(Nc2nccc(-c3ccc(Cl)s3)n2)cc1` [compound 4], for which the “result in Western analysis of IκBα” value was “positive result”. Next, `COc1ccc(-c2ccnc(Nc3ccc(S(=O)(=O)NCCCN(C)C)c(Cl)c3)n2)cc1F` [compound 173]: “positive result”; `NS(=O)(=O)c1ccc(Nc2nccc(-c3ccc(/C=C/CO)cc3)n2)cc1` [compound 272]: “positive result”. Next, `NS(=O)(=O)c1ccc(Nc2nccc(-c3ccc(C#Cc4ccccn4)s3)n2)cc1` [compound 35]: “slightly positive result”; `O=S(=O)(NCCCO)c1ccc(Nc2nccc(-c3ccc(C(F)(F)F)cc3)n2)cc1` [compound 68]: “positive result”.
